From patent US5364615A (priority 1992, dated 1994)

Tests used:
Pneumocystis carinii [1] = details: cited from earlier work
[2] = human, in vivo; cited from earlier work
Pneumocystis carinii [3] = details: in vivo; cited from earlier work
Pneumocystis carinii [4] = test: Randomized clinical trial of PCP prophylaxis (Example 8); format: in vivo, human
[5] = Adverse reactions and toxicity during PCP therapy (Example 3); details: inhaled pretreatment; 9 patients

## COc1cc(NCc2ccc3nc(N)nc(N)c3c2C)cc(OC)c1OC [trimetrexate]
Pneumocystis carinii [1]; human, in vivo
  relapse rate within one month: relapse rates within one month appear to be high
[2]
  adverse reactions: Adverse reactions have been reported

## Nc1ccc(S(=O)(=O)c2ccc(N)cc2)cc1 [Dapsone, diaminodiphenylsulfone]
Pneumocystis carinii [1]; dapsone alone
  failure rate for PCP: about 39%
Pneumocystis carinii [3]
  efficacy in rat PCP model: effective

## Cc1cn([C@H]2C[C@H](N=[N+]=[N-])[C@@H](CO)O2)c(=O)[nH]c1=O [zidovudine]
Pneumocystis carinii [4]; AZT use, Cox models, with aerosolized pentamidine
  reduction of PCP risk: two-fold
Pneumocystis carinii [4]; participants who had taken zidovudine, on aerosolized pentamidine, never taken: 67%
  mortality: 28%

## CC(C)NCC(O)c1cc(O)cc(O)c1 (stereo not drawn) [metaproterenol]
[5]
  control of aerosol-related cough: in 9 patients cough was mild and controlled

## NCCC[C@](N)(C(=O)O)C(F)F [DFMO, α-difluoromethylornithine]
Pneumocystis carinii [1]; recent clinical studies
  clinical response: some clinical response
Pneumocystis carinii [3]
  efficacy in rat PCP model: hot efficacious
